Where two headings read alike, the source gives them in different places.
Columns and labels:
[1] = tested on: cultured cortical neurons; assay: sRGECO calcium sensor imaging of neuronal activity in cultured cortical neurons; assay type: cell-based, mouse
Procedure: Cortex was isolated from postnatal day 1–2 (P1-P2) mice (C57Bl/6, Charles River, Germany), and the meninges were removed in ice-cold dissection media containing 10% 10xHBSS (Gibco, Scotland, #14065056), 1% P/S, 1% sodium pyruvate (Gibco, Scotland, #11360070), 1% 1M HEPES (Gibco, Scotland), and 1.2% 45% glucose (Sigma-Aldrich, Germany). […]
Neurons were continuously perfused with artificial cerebrospinal fluid (aCSF) [120 mM NaCl, 5 mM KCl, 2 mM CaCl2, 2 mM MgCl2, 25 mM HEPES, and 30 mM D-glucose] at pH 7.4 and 32°C for all live imaging experiments. […] The collected images were recorded either at a frame rate of 1 frame/second when recording GRAB NPY1.0 alone or 4 frames/second when the sRGECO signal was also recorded. […]
(§1) Epifluorescence imaging was conducted under constant slow perfusion of aCSF buffers at a flow rate of approximately 1 ml/min. To induce neuronal activity, bicuculline (Bic; 50 μM; 14340, Sigma-Aldrich, Germany; dissolved in DMSO) and 4-aminopyridine (4-AP; 250 μM; 275875, Sigma-Aldrich, Germany; dissolved in Milli-Q water) was added together with aCSF, which was carefully measured after adding the compounds to confirm a pH of 7.4. […]

[2] = tested on: GRAB NPY1.0 sensor; assay: GRAB NPY1.0 sensor live-cell fluorescence imaging in cultured cortical neurons; assay type: cell-based, mouse
Procedure: Cortex was isolated from postnatal day 1–2 (P1-P2) mice (C57Bl/6, Charles River, Germany), and the meninges were removed in ice-cold dissection media containing 10% 10xHBSS (Gibco, Scotland, #14065056), 1% P/S, 1% sodium pyruvate (Gibco, Scotland, #11360070), 1% 1M HEPES (Gibco, Scotland), and 1.2% 45% glucose (Sigma-Aldrich, Germany). The cortices were cut into smaller pieces and incubated for 20–30 min at 37°C in papain solution containing 20 units/mL papain (Worthington Biochemical, #LS003126), 1mM L-cysteine (Sigma-Aldrich, Germany, #C7352), 1.9 mM CaCl2 (Sigma-Aldrich, Germany), 0.5 mM Kynurenic acid (Sigma-Aldrich, Germany, #K3375), pH adjusted to 7.4 with HCl and oxygenated with 95% O2 and 5% CO2. After incubation, the tissue was washed 3 times with Neurobasal A media and carefully triturated 3–5 times with a glass Pasteur pipette with a fire-polished tip. The dissociated cortical neurons were plated at a density of 100,000 or 150,000 cells/well onto the glia monolayered 18- or 25-mm coverslips, respectively, and grown in Neurobasal A media containing 1% Glutamax, 2% B-27, and 0.1% P/S. The day after seeding the neurons, half of the media was changed to remove any cell debris. Every 3–4 days, 1/4 of the media in the wells was removed and replaced with double of the removed volume of fresh neuronal media. The use of experimental animals was conducted in concordance with the Danish Research Ethical Committee for Experimental Animals (ethical permit #2017-15-0202-00092; PI: Andreas Toft Sørensen).
The following AAV vectors were used for experiments: GRAB NPY1.0 sensor (AAV2/9-hSyn-GRAB_NPY1.0; 6E+12−4.7E+13 vg/ml, 1 μL/well); sRGECO calcium sensor (AAV2/8-Ef1a-sRGECO-WPRE; Addgene plasmid #137125; RRID:Addgene_137125; 2.2E+13 vg/ml, 0.2 μL/well) ([Fenno et al., 2020]); NPY1-36 vector (AAV2/8-hSyn-PreproNPY-WPREpA; full-length peptide incl. CPON; produced in-house; 7.8E+12 vg/ml, 0.5 μL/well) ([Soud et al., 2019]). Primary cultures were transduced after 2–3 DIV and given […] to assure robust expression before being used for live-cell imaging.
Neurons were continuously perfused with artificial cerebrospinal fluid (aCSF) [120 mM NaCl, 5 mM KCl, 2 mM CaCl2, 2 mM MgCl2, 25 mM HEPES, and 30 mM D-glucose] at pH 7.4 and 32°C for all live imaging experiments. An RC-21BDW microscope flow chamber (Warner Instruments, Hamden, CT, USA) was used to hold the coverslips and to apply a flow of different aCSF and drug buffers during imaging at 20× with a Nikon Eclipse Ti microscope connected to two EM-CCD cameras (iXon3 897, Andor). A NIS-Elements software (Nikon, Tokyo, Japan) was used for recordings. GRAB NPY1.0 and sRGECO biosensors were excited with 488 nm and 561 nm laser lines (LED sapphire laser; Coherent Inc., Santa Clara, CA, USA), respectively. For the 488 nm LED laser excitation, a 491 nm mirror, and a 475/35 nm band-pass filter were used, while a 525/50 nm band-pass filter (AHF Analysentechnik, Tübingen-Pfrondorf, Germany) was used to detect emitted light. For the 561 nm LED laser excitation, a 561 nm mirror, and a 560/40 nm band-pass filter were used, while a 630/75 nm band-pass filter (AHF Analysentechnik, Tübingen-Pfrondorf, Germany) was used to detect emitted light. The collected images were recorded either at a frame rate of 1 frame/second when recording GRAB NPY1.0 alone or 4 frames/second when the sRGECO signal was also recorded. All recordings were performed using epifluorescence microscopy.
as §1

[3] = tested on: GRAB NPY1.0 sensor; conditions: ref Wang et al., 2022, read-out: EC50 of GRAB NPY1.0 sensor response, cited from earlier work
Excerpt: Here, we report on the usage of the GRAB NPY1.0 sensor in mouse-cultured cortical neurons and address the question: can the sensor detect the release of endogenous NPY? This sensor, recently developed in the Yulong Li laboratory, Peking University of China, is one of six neuropeptide-based GRAB sensors engineered for detecting either SST, CCK, CRF, NTS, VIP or NPY ([Wang et al., 2022]). While it was shown that the SST, CCK, and CRF sensors can detect endogenously released neuropeptides ([Wang et al., 2022]), similar information is lacking on the NPY1.0 sensor. In our setup, we tested the NPY1. ...

[4] = transgene NPY cultures, BIBO3304 applied during Bic + 4-AP

| Compound | effect on high-frequency activity induced by Bic + 4-AP (sRGECO signal) ([1]; BIBO3304 applied to the cultures) | change of GRAB NPY1.0 fluorescence signal at baseline conditions ([2]; BIBO3304 1 μM applied at baseline, n = 90 neurons from 2 coverslips) | change of GRAB NPY1.0 fluorescence when added during Bic + 4-AP ([2]; NPY transgene (AAV-NPY) cortical cultures, BIBO3304 1 μM added to Bic 50 μM + 4-AP 250 μM, n = 128 neurons from 6 coverslips) | effect on GRAB NPY1.0 signal of cluster A during Bic + 4-AP [2, 4] | effect on GRAB NPY1.0 signal of clusters B and C during Bic + 4-AP [2, 4] | EC50 ([3]; HEK293T cells stably expressing the NPY1.0 sensor) | EC50 ([3]; rat cortical neurons transduced by a similar AAV9 vector with human synapsin promoter) | change of sRGECO fluorescent signal (neuronal activity) during continuous Bic + 4-AP perfusion ([1]; exogenous NPY added to primary cultures during Bic + 4-AP) | neurons expressing the GRAB NPY1.0 sensor that remained unresponsive ([2]; 1 μM exogenous NPY, naive mouse cortical cultures, 174 neurons from 9 coverslips) | EC50 ([2]; mouse cultured cortical neurons expressing GRAB NPY1.0, exogenous NPY1-36 0.3, 1, 30, 1000 nM in aCSF with 1% BSA, pH 7.4, 32°C, mean ΔF/F0, three-parameter fit, n = 130 neurons from 5 coverslips, read-out: EC50 of GRAB NPY1.0 fluorescence response (normalized dose-response curve)) |
| --- | --- | --- | --- | --- | --- | --- | --- | --- | --- | --- |
| NC(=O)NCc1ccc(CNC(=O)[C@@H](CCCN=C(N)N)NC(=O)C(c2ccccc2)c2ccccc2)cc1 [BIBO3304] | not per se affected | remained unchanged | significant drop in fluorescence | not affected | significantly reduced | – | – | – | – | – |
| Neuropeptide Y [NPY] | – | – | – | – | – | 0.04 µM | 0.0007 µM | marked decrease | 8 out of 174 | 0.038 µM |

Reference: article PMC10399118, “Detection of endogenous NPY release determined by novel GRAB sensor in cultured cortical neurons” (Frontiers in Cellular Neuroscience, 2023)
